Assay results: patent publication US20240197688A1, “COMBINATION MEDICINE FOR PREVENTING/TREATING DYSLIPIDEMIA OR CARDIOVASCULAR DISEASE” (KOWA COMPANY, LTD., priority 2021, published 2024)

What was measured:
Format in all cases: in vivo
[1] = system: PPARα gene; assay: Effect of combination use on expression level of PPARα gene in liver of rat (quantitative PCR); settings: male Wistar rat, oral once a day for 2 weeks; compound A 0.3 mg/kg, compound B 30 mg/kg, alone or in combination; β-actin internal standard; actual value
From the text: Male rats (7-week-old, Wistar [Crlj: WI], Charles River Laboratories Japan, Inc.) were used for an experiment. Blood was collected from the jugular vein under satiation, and the rats were divided into four groups (N=6) based on TG and TC in the plasma and body weights. For two weeks from the next day of the grouping, each of a solvent (0.5% carboxymethyl cellulose aqueous solution: CMC), a compound A (pemafibrate) alone, a compound B (bempedoic acid) alone, and a combination of pemafibrate and bempedoic acid was orally administered once per day. After four hours from the final administration of the drug, blood was collected under isoflurane anesthesia to obtain the liver. RNA in the liver was extracted using ISOGEN (Nippon Gene Co., Ltd.), and cDNA was prepared using a high-capacity cDNA reverse transcription kit (Thermo Fischer Scientific). Quantitative PCR (polymerase chain reaction) was performed using the prepared cDNA, and the relative value of the expression level of the PPARα gene was calculated using β-actin gene as an internal standard. […]
The results were presented by an average value standard error. Comparison between the control group and each of the drug administration groups was performed by a multiple comparison test of Dunnett, and a risk rate of less than 5% was determined to have a significant difference.

[2] = system: db/db mice; assay: Effect of combination use on total cholesterol content in liver of db/db mice; settings: male db/db mice, oral once a day for 2 weeks; compound A 0.3 mg/kg, compound B 10 mg/kg, alone or in combination
From the text: Male mice (8-week-old, db/db: BKS.Cg−+Leprdb/+Leprdb/Jcl, Lean: BKS. Cg−m+/m+/Jcl, CLEA Japan, Inc.) were used for an experiment. They were divided into four groups (N=8) based on body weights. For two weeks from the next day of the grouping, each of a solvent (0.5% methylcellulose aqueous solution: MC), a compound A (pemafibrate) alone, a compound B (bempedoic acid) alone, and a combination of pemafibrate and bempedoic acid was orally administered once per day. After four hours from the final administration of the drug, the liver was extracted under isoflurane anesthesia, and the TC concentration in the liver was measured using the FOLCH method described above. • Group 1: Control (Solvent Only) • Group 2: 0.3 mg/kg of Compound A • Group 3: 10 mg/kg of Compound B • Group 4: 0.3 mg/kg of Compound A and 10 mg/kg of Compound B The results were presented by an average value±standard error. Comparison between the control group and each of the drug administration groups was performed by a multiple comparison test of Tukey, and a risk rate of less than 5% was determined to have a significant difference.

[3] = system: Wistar rat; assay: Effect of combination use of compound A and compound B on TG index of rat; settings: male Wistar rat, oral once a day for 2 weeks; compound A 0.3 mg/kg, compound B 30 mg/kg, alone or in combination; actual value
From the text: Male rats (7-week-old, Wistar [Crlj: WI], Charles River Laboratories Japan, Inc.) were used for an experiment. Blood was collected from the jugular vein under satiation, and the rats were divided into four groups (N=6) based on TG and TC in the plasma and body weights. For two weeks from the next day of the grouping, each of a solvent (0.5% carboxymethyl cellulose aqueous solution: CMC), a compound A (pemafibrate) alone, a compound B (bempedoic acid) alone, and a combination of pemafibrate and bempedoic acid was orally administered once per day. After four hours from the final administration of the drug, blood was collected under isoflurane anesthesia to obtain plasma. Parameters in the blood were measured using an automated analyzer (Labospect 003, Hitachi High-Technologies Corporation). A lipid content in the liver was measured using the method described in J. Biol. Chem. 226 (1), 497-509 (1957) (FOLCH method). A TG index (%) was expressed as a ratio of a product of a blood TG concentration and a TG content in the liver of a sample to that of Control. In the present Example, the compound A was prepared and used according to the method described in Patent Document 1. […] Comparison between the control group and each of the drug administration groups was performed by a multiple comparison test of Dunnett, and a risk rate of less than 5% was determined to have a significant difference.

SMILES | expression level of PPARα gene (Ppara) in the liver relative to Control [1] [times] | total cholesterol content in the liver compared to Control [2] [%] | TG index (ratio of product of blood TG concentration and liver TG content to that of Control) [3] [%]
CC[C@@H](Oc1cccc(CN(CCCOc2ccc(OC)cc2)c2nc3ccccc3o2)c1)C(=O)O [compound A, (R)-2-[3-[[N-(benzoxazole-2-yl)-N-3-(4-methoxyphenoxy)propyl]aminomethyl]phenoxy]butyric acid] | 1.17 | 86.2 | 65.4
CC(C)(CCCCCC(O)CCCCCC(C)(C)C(=O)O)C(=O)O [compound B, 8-hydroxy-2,2,14,14-tetramethylpentadecanedioic acid] | 1.22 | 87.0 | 60.6
